Test results reported in PubChem BioAssay (NCI).
Where “and” joins values, the source holds several entries; their conditions need not be identical. Equal entries are not always repeated.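 Where inhibition never reached the appropriate level, the endpoint shown equals the highest concentration tested. Otherwise, values were interpolated linearly from a five-concentration, 48-hour dose response in 96-well plates. GI50 = concentration required for 50% inhibition of growth. TGI is the concentration that stops growth completely.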

Legend:
Test in all cases: NCI tumour cell line growth inhibition, 48 h
ACHN renal = test system: ACHN renal
CCRF-CEM leukemia = test system: CCRF-CEM leukemia
NCI-H460 lung = test system: NCI-H460 lung
HT29 colon = test system: HT29 colon
SK-MEL-5 melanoma = test system: SK-MEL-5 melanoma
M14 melanoma = test system: M14 melanoma
SNB-75 CNS = test system: SNB-75 CNS
LOX IMVI melanoma = test system: LOX IMVI melanoma
SF-295 CNS = test system: SF-295 CNS
OVCAR-3 ovarian = test system: OVCAR-3 ovarian
HCT-116 colon = test system: HCT-116 colon

| Compound | TGI (ACHN renal) | TGI (CCRF-CEM leukemia) | TGI (NCI-H460 lung) | TGI (HT29 colon) | TGI (SK-MEL-5 melanoma) | TGI (M14 melanoma) | TGI (SNB-75 CNS) | TGI (LOX IMVI melanoma) | TGI (SF-295 CNS) | TGI (OVCAR-3 ovarian) | TGI (HCT-116 colon) | GI50 (SK-MEL-5 melanoma) | GI50 (SF-295 CNS) | GI50 (OVCAR-3 ovarian) |
| --- | --- | --- | --- | --- | --- | --- | --- | --- | --- | --- | --- | --- | --- | --- |
| CCCCc1c(O)nc(Nc2nc3ccccc3[nH]2)[nH]c1=O | > 100 µM | > 100 µM | > 100 µM | > 100 µM | > 100 µM | > 100 µM | > 100 µM | > 100 µM | > 100 µM | > 100 µM | > 100 µM | – | – | – |
| O=c1oc2ccccc2c(O)c1C(c1cc(OCc2ccccc2)cc(OCc2ccccc2)c1)c1c(O)c2ccccc2oc1=O | 7.99 µM | > 22.5 µM | 11 µM | 33.5 µM | 21.2 µM | 23 µM | 17 µM | 77.5 µM | 24 µM | 35 µM | 17.5 µM | – | – | – |
| COc1ccc(-c2c(C#N)c(S)n(C3OC(COC(C)=O)C(OC(C)=O)C(OC(C)=O)C3OC(C)=O)c(=O)c2C#N)cc1 (stereo not drawn) | > 100 µM | > 100 µM | > 100 µM | > 100 µM | > 100 µM | > 100 µM | 60.6 µM and 89 µM | > 100 µM | > 100 µM | > 100 µM and 61.6 µM | > 100 µM | 60.7 µM and 29.3 µM | 36.1 µM and 87.1 µM | > 100 µM and 23.8 µM |
| CCOC(=O)c1sc2nc(SC)nc3c2c1N=CN3c1ccc(Br)cc1 | > 100 µM | > 100 µM | > 100 µM | > 100 µM | > 100 µM | > 100 µM | > 100 µM | > 100 µM | > 100 µM | > 100 µM | > 100 µM | – | – | – |
| Cc1ccc(N=Nc2c3c(c(O)c4ccccc24)CCC(C)(C)O3)cc1 | 62.1 µM | 39.6 µM | 32.8 µM | 35.7 µM | 15.7 µM | 32.6 µM | 36 µM | 28.6 µM | 28.8 µM | 62.4 µM | 49.2 µM | – | – | – |
| COc1ccc(-c2c(C#N)c(N)n(C3OC(CO)C(O)C(O)C3O)c(=S)c2C#N)cc1 (stereo not drawn) | > 100 µM | > 100 µM | > 100 µM | > 100 µM | > 100 µM | > 100 µM | > 100 µM | > 100 µM | > 100 µM | > 100 µM | > 100 µM | – | 64.7 µM and 22.3 µM | – |
| CC[C@@H]1CC[C@@H]2[C@H](CC[C@]3(C)[C@@H](O)CC[C@@H]23)[C@H]1C(=O)O | > 100 µM | > 100 µM | > 100 µM | > 100 µM | > 100 µM | > 100 µM | > 100 µM | > 100 µM | > 100 µM | > 100 µM | > 100 µM | – | – | – |
| Cc1cccc(N2C(=O)C3ON(C(C(N)=O)c4ccccc4)C(c4c5ccccc5c(Cl)c5ccccc45)C3C2=O)c1C (stereo not drawn) | 19.7 µM | > 50 µM | 21.6 µM | 14.9 µM | 13.9 µM | 16.1 µM | 19.4 µM | 16.5 µM | 23 µM | 17.5 µM | 3.84 µM | – | – | – |
| COc1ccc2nc(-c3ccc(OCc4ccccc4)cc3)ccc2c1 | > 100 µM | > 100 µM | > 100 µM | > 100 µM | > 100 µM | > 100 µM | > 100 µM | > 100 µM | > 100 µM | > 100 µM | > 100 µM | – | – | – |
| c1cc2nnc1SCCSCCSc1ccc(nn1)SCCSCCS2 | > 100 µM | > 100 µM | > 100 µM | > 100 µM | > 100 µM | > 100 µM | 77.3 µM | > 100 µM | > 100 µM | > 100 µM | > 100 µM | – | – | – |
| Nc1nc(Cl)cc(NCC2(CO)CC(CCc3ccccc3)C2)n1 (stereo not drawn) | > 100 µM | > 100 µM | > 100 µM | > 100 µM | > 38.1 µM | > 100 µM | > 90.2 µM | > 100 µM | > 100 µM | > 100 µM | > 100 µM | – | – | – |
| O=C1CC(O)c2c1csc2Br (stereo not drawn) | 45.4 µM | 55.1 µM | > 100 µM | > 100 µM | > 100 µM | 35.5 µM | > 100 µM | 36.1 µM | > 100 µM | 64.4 µM | 49.1 µM | – | – | – |
| COc1ccc(C2C(Cl)C(=O)N2NC(=O)c2ccc(NC(C)=O)cc2)cc1 (stereo not drawn) | > 100 µM | > 100 µM | > 100 µM | > 100 µM | > 100 µM | > 100 µM | > 100 µM | > 100 µM | > 100 µM | > 100 µM | > 100 µM | – | – | – |
| CCN(CC)CCOC(c1cc(OC)ccc1OC)c1ccc2n1-c1ccccc1OC2 (stereo not drawn) | 26.7 µM | 17.2 µM | 26.2 µM | 13.9 µM | 22.2 µM | 33.2 µM | 17.3 µM | 23.6 µM | 23.9 µM | 31 µM | > 100 µM | – | – | – |
| COC(=O)C1(Cc2ccccc2)Cc2cc3c(cc2C1=O)CCC3 (stereo not drawn) | > 100 µM | 52.9 µM | 35 µM | 36 µM | 33 µM | 57.6 µM | > 100 µM | 79.1 µM | > 100 µM | > 100 µM | > 100 µM | – | – | – |
| O=c1c2ccccc2[nH]c(=S)n1-c1ccc(N=Nc2cccc3c(O)cccc23)cc1 | > 100 µM | > 100 µM | > 100 µM | > 100 µM | > 100 µM | > 100 µM | > 100 µM | > 100 µM | > 100 µM | > 100 µM | > 100 µM | – | – | – |
| CC(=O)C(CN1CCCCC1)C(c1ccccc1)c1c(O)c2ccccc2oc1=O (stereo not drawn) | > 100 µM | > 100 µM | > 100 µM | > 100 µM | > 100 µM | > 100 µM | > 100 µM | > 100 µM | > 100 µM | > 100 µM | > 100 µM | – | – | – |
| CC(C)(C)OC(=O)NCCCCC(NC(=O)OCc1ccccc1)C(N)=O (stereo not drawn) | > 100 µM | > 100 µM | > 100 µM | > 100 µM | > 100 µM | > 100 µM | > 100 µM | > 100 µM | > 100 µM | > 100 µM | > 100 µM | – | – | – |
| COC1(C)CC2N(C(=O)c3ccccc3)N=C(c3ccccc3)CC2(C)O1 (stereo not drawn) | > 100 µM | > 100 µM | > 100 µM | > 100 µM | > 100 µM | > 100 µM | > 100 µM | > 100 µM | > 100 µM | > 100 µM | > 100 µM | – | – | – |
